Reference: US20070208067A1, “Tablet Formulations and Processes” (Wyeth, priority 2006, published 2007)

Key:
[1] = Stability studies of the two crystal forms (XRPD, TGA, HPLC); assay type: physicochemical; settings: for Chemical stability (HPLC) / Crystal form transformation (XRPD and TGA): 40° C./75% RH (monohydrate also 40° C. without humidity control)
Protocol: […] At room temperature, humidity was maintained at 0% RH. Humidity was not controlled for the higher temperatures.
The samples were analyzed by XRPD and TGA.
Non-micronized samples of monohydrate and anhydrate were stored at 40° C./75% RH for three months. The monohydrate was also stored at 40° C. without humidity control. During the three months, the samples were checked after two weeks, one month, two months, and three months.

[2] = Dynamic vapor sorption (hygroscopicity) of the two crystal forms; assay type: physicochemical; settings: for DVS weight gain: 0–90% RH; for Hygroscopicity (DVS): result in words
Excerpt: Dynamic Vapor Sorption (Allentown, Pa.) was used to measure the hygroscopicity of the anhydrate and monohydrate of the invention (see FIGS. 6 and 7). The step conditions were three hours each at 0%, 30%, 52.5%, 75% and 90% RH, two full cycles.

Row | Crystal form transformation (XRPD) ([1]; micronized, 25° C./60% RH, three months) | Crystal form transformation (XRPD) ([1]; micronized, 40° C./75% RH, one month) | Chemical stability (HPLC) ([1]; non-micronized, three months) | Crystal form transformation (XRPD and TGA) ([1]; non-micronized, three months) | Crystal form transformation (XRPD) ([1]; non-micronized, 40° C./75% RH, separate study) | DVS weight gain [2] | Hygroscopicity (DVS) [2] | Solid-state stability (XRPD and TGA) ([1]; 56° C., humidity not controlled, one week) | Solid-state stability (XRPD and TGA) ([1]; 70° C., humidity not controlled, 1 day) | Solid-state stability (XRPD and TGA) ([1]; 70° C., humidity not controlled, 4 days) | Solid-state stability (XRPD and TGA) ([1]; 70° C., humidity not controlled, 7 days) | Solid-state stability (XRPD) ([1]; 70° C., one hour) | Solid-state stability (XRPD) ([1]; 90° C., one half hour) | Solid-state stability (XRPD) ([1]; 90° C., one hour) | Solid-state stability (XRPD and TGA) ([1]; room temperature, 0% RH, one week) | Compound
1 | did not transform to the monohydrate | partially transform to the monohydrate | chemically stable | did not transform | did not show any obvious transformation | 0.2% gain (0–90% RH) | largely non-hygroscopic |  |  |  |  |  |  |  |  | C=Cc1cc(O)cc2nc(-c3ccc(O)c(F)c3)oc12 [Anhydrate, 2-(3-fluoro-4-hydroxyphenyl)-7-vinyl-1,3-benzoxazol-5-ol]
2 |  |  | chemically stable | did not transform |  | 0.1% gain (0–90% RH) | largely non-hygroscopic | no obvious dehydration | no obvious hydration | partially dehydrated | mostly dehydrated | stable | partially dehydrated | completely dehydrated | no obvious dehydration | C=Cc1cc(O)cc2nc(-c3ccc(O)c(F)c3)oc12 [Monohydrate, 2-(3-fluoro-4-hydroxyphenyl)-7-vinyl-1,3-benzoxazol-5-ol]
